Among the data in a melting point compilation (Tetko et al.) are melting point values, retold here.

Each structure is given as a SMILES string.

In turn, `COc1cc2ncc(O)nc2cc1OC` returned a melting point of 266 to 268 °C.
The figure for `CCCN1Cc2ccc(N)cc2C1` is 48 to 50 °C.
With `Nc1cccc(N2CCN(CCc3ccccc3)CC2)c1`, the melting point lay in the range of 96 to 98 °C.
The figure for `Nc1ccc(CC(=O)N2CCOCC2)cc1` is 164 to 166 °C; for `CCc1sc(C(=O)O)cc1Br` it is 155 to 157 °C; for `N#CCNC(=O)CCl` it is 88 to 90 °C.
In the case of `Cc1ncsc1C(=O)Cl`, the melting point was 62 to 64 °C.
On to `NS(=O)(=O)c1ccc(Cl)cn1`, for which the melting point fell in the range of 125 to 127 °C.
The compound `OCc1c(Cl)nc(Cl)n1-c1ccccc1` showed a melting point of 139 to 141 °C.
For `COC(=O)c1ccnc(C#N)c1` the value was 109 to 111 °C; for `Cn1nc(C(F)(F)F)c(C(=O)O)c1C(F)(F)F`, 127 to 129 °C; for `Cc1nn(-c2ccc(F)cc2F)c(C)c1C=O`, 129 to 131 °C.
The figure for `O=[N+]([O-])c1ccc(Cl)nc1O` is 139 to 141 °C.
The figure for `Cc1ccc(-c2cc(C(=O)O)[nH]n2)cc1` is 251 to 253 °C.
The compound `Cc1cc(-c2nc3ccccc3n2C)c(=O)[nH]n1` returned a melting point of 334 to 336 °C.
In turn, `Cc1nc(C)c(S(N)(=O)=O)s1` showed a melting point of 142 to 144 °C.
For `CCc1cc2oc(=O)cc(CCl)c2cc1Cl`, the melting point is 170 to 172 °C.
For `Cn1c(S)nc2cc(S(N)(=O)=O)ccc21` the value was 313 to 315 °C; for `CCCc1noc2nc(C3CC3)cc(C(=O)O)c12`, 142 to 144 °C.
The figure for `O=[N+]([O-])c1ccc2oc(CCl)nc2c1` is 115 to 117 °C.
On to `CC(C)(C)OC(=O)C1CCN(C(=O)OCc2ccccc2)CC1`, for which the melting point is 56 to 58 °C.
The figure for `O=C(O)c1cnc(C2CCCO2)s1` (stereo unspecified) is 139 to 141 °C.
Compound `CCOC(=O)c1sc(N)c(C#N)c1C` displayed a melting point of 212 to 214 °C.
The figure for `N#Cc1cc(Cl)ccc1Oc1cccc(C(=O)O)c1` is 211 to 213 °C.
For the compound `NNC(=S)Nc1cccnc1`, the melting point is 174 to 176 °C.
The compound `CNC1(CO)CCC(c2ccccc2)CC1` (stereo unspecified) registered a melting point of 127 to 129 °C.
Take `Cn1[nH]c(-c2ccco2)c(-c2ccc3c(c2)OCO3)c1=N`: the melting point is 140 to 142 °C.
Compound `CCOC(=O)c1c(-c2ccc(C)s2)csc1N` had a melting point of 93 to 95 °C.
The figure for `Nc1onc(C2CCC2)c1-c1ccc2c(c1)OCO2` is 96 to 98 °C; for `NNc1ccc(S(=O)(=O)Nc2ccccn2)cn1` it is 218 to 220 °C.
The figure for `O=C(O)c1nn(-c2ccccc2F)c2c1CCC2` is 194 to 196 °C; for `COc1ccc(Cl)cc1C1(CN)CCOCC1` it is 100 to 102 °C; for `COc1cccc2[nH]cc(CC(=O)O)c12` it is 174 to 176 °C.
For `CC(=O)NC1CCN(C(C)C)CC1` the value was 84 to 86 °C; for `O=C(O)CNC(=O)c1c(F)cccc1Cl`, 197 to 199 °C.
Compound `Cc1nn(C)c(Cl)c1C#N` had a melting point of 55 to 57 °C.
In turn, `O=C(O)CCNC(=O)c1ccc2ccccc2c1` registered a melting point of 179 to 181 °C.
For `O=[N+]([O-])c1ccc(OCC(F)(F)F)nc1` the value was 41 to 43 °C; for `CC(C)c1ccc(CCC(N)=O)cc1`, 142 to 144 °C; for `CCNC(=O)COc1ccc(C=O)cc1OC`, 109 to 111 °C.
On to `NNC(=O)C(=O)Nc1ccccn1`, for which the melting point is 179 to 181 °C.
The compound `CC1(n2cc(C=O)cn2)CCS(=O)(=O)C1` (stereo unspecified) returned a melting point of 84 to 86 °C.
The figure for `O=C(O)c1cccn1-c1ccc(I)cc1` is 199 to 201 °C.
For `c1ccc(-c2nnc(-c3ccccc3)[nH]2)cc1` the value was 189 to 191 °C; for `COc1ccc(NC(=O)CCl)cc1S(=O)(=O)N1CCCCC1`, 142 to 144 °C.
The figure for `COc1c(C(=O)O)c(C)nn1C` is 172 to 174 °C.
Take `Cc1nc(Cl)c2cnn(-c3ccc(F)cc3)c2n1`: the melting point fell in the range of 114 to 116 °C.
On to `Cc1cc(O)cc(O)n1`, for which the melting point is 324 to 327 °C.
The figure for `CCOC(=O)c1ccc(S(=O)(=O)Cl)cc1` is 49 to 51 °C; for `Cc1ccc(-c2nn(-c3ccccc3)cc2C(=O)O)cc1` it is 229 to 231 °C.
For `CS(=O)(=O)Nc1ccc(N)cc1Br` the value was 146 to 148 °C.
The figure for `O=C(CCl)Nc1cc(Cl)ccc1C(=O)O` is 152 to 154 °C; for `CN1CCN(c2cccc(C#N)n2)CC1` it is 59 to 61 °C; for `CNc1cc(C#N)c2ccccc2n1` it is 166 to 168 °C.
In turn, `Cc1ccc(-n2c(C)c(C)c3c(N)ncnc32)cc1` registered a melting point of 202 to 206 °C.
The figure for `CC(C)NS(=O)(=O)c1cccc(C(=O)O)c1` is 162 to 164 °C; for `COc1cc(CO)c([N+](=O)[O-])cc1OCC(F)F` it is 107 to 109 °C.
The compound `Nc1cc(-c2c(F)cc(F)cc2F)no1` showed a melting point of 131 to 133 °C.
For `NCc1cccc(S(=O)(=O)NCc2cccc(F)c2)c1` the value was 101 to 103 °C; for `CNS(=O)(=O)c1ccc(I)cc1`, 94 to 96 °C.
Compound `O=C(CCl)NCC1Cc2ccccc2O1` (stereo unspecified) returned a melting point of 94 to 96 °C.
For `OC(CN1CCCC1)C(F)(F)F` (stereo unspecified) the value was 78 to 80 °C; for `Cn1cc(C(=O)O)c(-c2coc3ccccc23)n1`, 277 to 279 °C.
For `NC(=O)c1ccoc1` the value was 174 to 176 °C; for `c1ccc(N2CCN(CC3CCCNC3)CC2)nc1` (stereo unspecified), 73 to 75 °C; for `Cc1ccc(C(=O)c2ccc3[nH]c(=O)oc3c2)cc1`, 206 to 208 °C.
In turn, `CC(=O)c1cc([N+](=O)[O-])c(Cl)s1` gave a melting point of 74 to 76 °C.
For `Nc1nnc(Cc2ccsc2)o1` the value was 151 to 153 °C; for `Nc1ccc(CC(=O)N2CCCC2)cc1`, 107 to 109 °C.
On to `C=CC(=O)ON=C(N)c1ccc(Cl)cc1`, for which the melting point was in the range of 120 to 122 °C.
For `CC(=O)N1CCCNc2ccccc21` the value was 132 to 134 °C; for `CC(C)(C)OC(=O)NCC1(C(=O)O)CCCC1`, 123 to 125 °C.
The figure for `COc1cc(C=O)ccc1OCc1ccncc1` is 106 to 108 °C.
The figure for `Cc1[nH]c(=O)[nH]c1C` is 239 to 241 °C; for `O=c1ccn(C2CC2)c(S)n1` it is 238 to 240 °C.
Compound `CC(C)(C)OC(=O)NC1CCCCCC1=O` (stereo unspecified) showed a melting point of 67 to 69 °C.
The figure for `Cc1ccc(-n2cccc2)cc1` is 82 to 84 °C; for `CCOc1cc(C(=O)O)cc(Cl)c1O` it is 204 to 206 °C; for `O=C(O)c1c(F)ccc(S(=O)(=O)NC2CC2)c1F` it is 134 to 136 °C.
For `Cc1noc2nc(C(C)C)cc(C(=O)O)c12` the value was 158 to 160 °C.
In turn, `CCOC(=O)c1ccc2c(c1)nc(S)n2CC` yielded a melting point of 152 to 154 °C.
With `NNC(=O)CCc1cccnc1`, the melting point lay within 92 to 94 °C.
As to `COc1ccc(-c2ncc(C(=O)O)s2)cc1`, the melting point lay within 239 to 241 °C.
As to `CCN(c1ccccc1)S(=O)(=O)c1ccc(Cl)c([N+](=O)[O-])c1`, the melting point was in the range of 122 to 124 °C.
With `Cc1ccc(I)c(C(=O)O)c1`, the melting point is 119 to 121 °C.
As to `COc1cc(CC#N)ccc1OCC(F)(F)F`, the melting point is 62 to 64 °C.
The figure for `O=S1(=O)CCN(S(=O)(=O)Cl)CC1` is 177 to 179 °C; for `Cc1cc(-c2csc(N)n2)c(C)n1CC1CCCO1` (stereo unspecified) it is 112 to 116 °C.
For `CCc1nc(C=O)c2ccccn12`, the melting point fell in the range of 103 to 105 °C.
The figure for `Fc1ccc(OCC2CNCCO2)cc1F` (stereo unspecified) is 49 to 51 °C.
For `CC(=O)Nc1ccc(S(=O)(=O)Cl)cc1[N+](=O)[O-]` the value was 89 to 91 °C; for `CC(C)C(=O)CNC(=O)c1ccc([N+](=O)[O-])cc1`, 106 to 108 °C; for `Cc1nc2c(c(C)nn2C)c(C)c1CCC(=O)O`, 211 to 213 °C.
For `CC1CC(C)CC2(C1)NC(=O)NC2=O` (stereo unspecified) the value was 299 to 301 °C.
`CCc1sc(=O)[nH]c1-c1ccccc1`: the melting point is 136 to 138 °C.
In turn, `Cc1c(S(=O)(=O)Cl)cnn1-c1ccccc1Cl` had a melting point of 98 to 100 °C.
The compound `O=C(NC1CC1)OCC(F)(F)F` displayed a melting point of 53 to 55 °C.
The figure for `OCc1noc(-c2ccc(F)cc2)n1` is 96 to 98 °C; for `COc1cc(Br)c(S(=O)(=O)Cl)cc1OC` it is 92 to 94 °C; for `O=C(NC(Cc1cccnc1)C(=O)O)c1ccccc1` (stereo unspecified) it is 176 to 178 °C.
For `N#Cc1ccc(CBr)c(OC(F)F)c1` the value was 80 to 82 °C; for `Nc1cccnc1-n1ccnc1`, 215 to 217 °C.
For `Cc1ccc2c(CCl)cc(=O)oc2c1C` the value was 174 to 176 °C.
In the case of `Nc1ccccc1CSc1ccc(C(F)(F)F)cn1`, the melting point fell in the range of 74 to 76 °C.
Compound `O=C(O)Cn1c(=O)cnc2ccccc21` yielded a melting point of 195 to 199 °C.
As to `Cc1ccccc1C(N)CO` (stereo unspecified), the melting point was 99 to 101 °C.
Take `N#CC1(c2ccc(C(=O)O)cc2)CC1`: the melting point fell in the range of 219 to 221 °C.
For `Cc1nc(COc2ccc(C=O)cc2)cs1` the value was 46 to 48 °C; for `CC(CSc1ccc(F)cc1)C(=O)O` (stereo unspecified), 61 to 63 °C; for `O=C(O)C1(c2cccc(F)c2)CC1`, 115 to 117 °C.
The compound `N#CC(C#N)=C1Nc2ccccc2N=C1Cl` showed a melting point of 264 to 266 °C.
For `O=C(O)C1CCCN(S(=O)(=O)c2ccc3ccccc3c2)C1` (stereo unspecified), the melting point fell in the range of 137 to 139 °C.
The figure for `NS(=O)(=O)Cc1ccccc1Br` is 118 to 120 °C; for `O=C(CCl)NC(=O)NC1CCCCC1` it is 102 to 105 °C.
The figure for `Fc1ccc2c(C3=CCNCC3)c[nH]c2c1` is 173 to 175 °C; for `O=C(O)c1cc(OCC(F)(F)F)cc(OCC(F)(F)F)c1` it is 141 to 143 °C.
The figure for `Cc1nc(=N)c(C)c(C)[nH]1` is 196 to 198 °C.
`O=C(O)C1=CCCS1`: the melting point lay within 126 to 128 °C.
The figure for `CSCc1nc2ccccc2n1CC(=O)O` is 221 to 225 °C; for `O=c1c2ccccc2nc(S)n1Cc1ccc(Cl)cc1` it is 221 to 223 °C; for `CC(N)Cc1cccc(O)c1` (stereo unspecified) it is 45 to 47 °C.

A word on the melting point: it is the temperature of the solid-liquid transition.
